The source of these data is patent US20170190726A9, “PRODRUG FOR RELEASE OF CISPLATIN AND CYCLOOXYGENASE INHIBITOR” (priority 2013, published 2017).

In test [1] the target is T1, ovine COX-2 (Ovis aries, UniProt P79208).
T1 construct: purchased Cayman Chemicals 560101
T1 sequence (P79208 17-603): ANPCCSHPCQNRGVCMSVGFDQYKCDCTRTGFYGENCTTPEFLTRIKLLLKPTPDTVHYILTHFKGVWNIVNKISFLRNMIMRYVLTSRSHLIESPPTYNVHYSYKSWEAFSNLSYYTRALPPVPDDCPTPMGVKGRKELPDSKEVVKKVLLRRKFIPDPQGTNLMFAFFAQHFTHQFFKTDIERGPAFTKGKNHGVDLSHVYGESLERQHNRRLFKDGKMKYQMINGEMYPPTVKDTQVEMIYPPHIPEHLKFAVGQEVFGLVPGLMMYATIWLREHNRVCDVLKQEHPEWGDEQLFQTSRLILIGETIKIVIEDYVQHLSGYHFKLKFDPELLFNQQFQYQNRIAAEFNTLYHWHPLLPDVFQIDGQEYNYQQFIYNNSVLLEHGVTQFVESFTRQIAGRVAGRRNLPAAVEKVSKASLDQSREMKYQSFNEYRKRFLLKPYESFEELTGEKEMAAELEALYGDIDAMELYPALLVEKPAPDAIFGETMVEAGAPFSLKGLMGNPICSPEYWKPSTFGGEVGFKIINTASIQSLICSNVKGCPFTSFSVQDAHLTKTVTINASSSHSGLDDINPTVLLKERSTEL
Briefly: In vitro COX inhibition assay (EIA), COX-2. The test is classed as biochemical. The note with it: ovine COX-2, EIA, 0.75-2 mM, aspirin as positive control. The procedure:
An enzyme immunoassay (EIA) kit from Cayman Chemicals (catalogue number 560101) was used to assess the ability of Platin-A to inhibit ovine COX-1 and COX-2. COX inhibition assay was performed as per the manufacturer protocol. All stock solutions were prepared following manufactures instruction. This inhibition assay was carried out using a two-step process: COX reaction and EIA. COX reaction involved preparation of following samples.
(i) Background samples: COX-1 and COX-2 were inactivated by transferring 20 μL of each enzyme to an eppendorf tube and placing the tube in boiling water for 3 min. […] (ii) COX-1 or COX-2 100% initial activity samples: 950 μL of reaction buffer, 10 μL of heme, 10 μL of COX-1 or COX-2, and 20 μL of reaction buffer were added to each test tube. (iii) COX-1 or COX-2 inhibitor samples: 950 μL of reaction buffer, 10 μL of heme, 10 μL of COX-1 or COX-2 and 20 μL of COX-1 and COX-2 inhibitors under investigation, aspirin and Platin-A of different concentrations (0.25, 0.5, 0.75, 1, and 1.5 mM for COX-1; 0.75, 1, 1.25, 1.5, and 2 mM for COX-2) were added to each test tube.
All the samples were incubated for 5 min in water bath at 37° C. […]
For EIA, 100 μL of EIA buffer was added to non-specific binding well and 50 μL of EIA buffer to maximum binding wells. […] Absorbance was recorded at a wavelength of 410 nm using a plate reader.

Test [2] concerns COX-2 expression in PC3 cells. Kind of test: Immunofluorescence analysis of COX-2 expression in PC3 cells. In kind it is cell-based, Human. The note with it: TNF-α 20 ng/mL 2 h, then 1 μM test article 2 h.
Description: Human TNF-α (20 ng/mL) was then added to the cells and incubated for 2 h. […] The cells were then fixed with a 4% paraformaldehyde solution for 30 min at room temperature. […] The coverslips were washed 3 times with H2O and 3 times with PBS. […] After 5 washes with blocking buffer, the cells were mounted on microscope slides with mounting media (20 mM Tris of pH 8.0, 0.5% N-propyl gallate, and 70% glycerol). Images were collected with 500 ms exposure using DAPI and FITC filters. Relative fluorescence units (RFUs) were also analyzed by a plate reader at an excitation wavelength of 488 nm and an emission of 519 nm.

Take `CC(=O)Oc1ccccc1C(=O)[O][Pt]([NH2])([NH2])([OH])([Cl])[Cl]` [Platin-A]: in test [1], the COX-2 inhibition entry is “very similar inhibition of both COX-1 and COX-2 as shown by aspirin”. Moreover, the “COX-2 expression in TNF-α stimulated PC3 cells” value in test [2] is “levels were reduced”.
